Assay results reported in patent US8283355B2, “Pyrimidine derivatives as POSH and POSH-AP inhibitors” (Proteologics, Ltd., priority 2006, dated 2012).
Read-outs that look alike come from different tables or passages of the source.

What was measured:
GST tagged hPOSH = target: T1, GST tagged hPOSH (Homo sapiens, UniProt Q7Z6J0); assay: HTS TR-FRET assay of POSH autoubiquitination; format: biochemical; details: GST tagged hPOSH with E1, UbCH5c, ubiquitin-cryptate, read-out: IC50 (POSH autoubiquitination, in vitro assay)
T1 construct: a fused GST-RING subunit of POSH protein
T1 sequence (Q7Z6J0 12-53 limits assumed): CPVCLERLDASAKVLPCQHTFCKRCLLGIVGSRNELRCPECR
Experimental: In order to test compounds as inhibitors of POSH, a ubiquitin protein ligase (E3) containing a RING domain that mediates its own ubiquitination in a RING finger-dependent manner in the presence of E1 and E2, a HTS (high-throughput screening) homogeneous TR-FRET (Time-Resolved Fluorescence Resonance Energy Transfer) assay was conducted to monitor POSH autoubiquitination.
The assay employs an ubiquitin-activating enzyme (E1) and an ubiquitin-conjugating enzyme (E2), a fused GST-RING subunit of POSH protein and two fluorophore-conjugated detection reagents, namely anti-GSTXL665 and europium cryptate-labeled ubiquitin. This homogeneous assay is based on FRET between a Eu^3+ cryptate donor and a second fluorescent label (acceptor), allophycocyanin. Allophycocyanin, a 105 kDa phycobiliprotein, is crosslinked to ensure its stability.
The ubiquitination of POSH by ubiquitin cryptate and binding of the anti-GST tagged XL665 brings the fluorophores into close proximity allowing FRET reaction to occur.
Self-ubiquitination of hPOSH was determined by homogenous time-resolved fluorescence resonance energy transfer assay (TR-FRET). […]
where: S=actual fluorescence, B=Fluorescence obtained in parallel incubation without […], C=Fluorescence obtained in reaction without added compounds. […]

[1] = tested on: HIV-1 p24 release from Jurkat cells; assay: Assay for virus release (HIV-1 p24 / VLP release from transfected Jurkat cells); format: cell-based; details: Human immunodeficiency virus 1, Jurkat, 24 h, read-out: IC50 in the virus release assay
Experimental: The POSH inhibitor Compound 1 was tested for its efficiency of viral budding and GAG expression and processing in treated and untreated Jurkat cells. The concentration of extracellular GAG p24 was used as an indication of viral budding.
Jurkat cells were incubated with Compound 1 (5 μM) for either 1 or 3 days. The next day, cells were transfected with the plasmid pNLenyl (2 μg/ml). Virus-like particle (VLP) release was determined one day after transfection as follows: the culture medium of virus-expressing cells was collected and centrifuged at 500×g for 10 minutes. The resulting supernatant was passed through a 0.45 μm-pore filter and the filtrate was centrifuged at 14,000×g for 2 hours at 4° C. The corresponding cells were washed three times with phosphate-buffered saline (PBS) and then solubilized by incubation on ice for 15 minutes in lysis buffer containing the following components: […] Hepes-NaOH, (pH 7.5), 150 mM NaCl, 1.5 mM MgCl2, 0.3% NP-40, 0.5% sodium deoxycholate, 1 mM EDTA, 1 mM EGTA and 1:200 dilution of protease inhibitor cocktail (EMD Biosciences, Inc.). The cell detergent extract was then centrifuged for 15 minutes at 14,000×g at 4° C. […] Enhanced Chemi-Luminescence (ECL) (Amersham Biosciences, Corp.) was then detected by fluorescence imaging (Typhoon Instrument, Amersham Biosciences, Corp.).

[2] = Compound cytotoxicity in CEM-SS cells (MTS); format: cell-based; details: human, read-out: TC50 (concentration resulting in 50% cell death)
Experimental: (§1) For the HIV cytoprotection assay, CEM-SS cells were used and the viruses HIV-1IIIb, HIV-1RF, or HIV-2ROD.
(§2) Briefly, virus and cells were mixed in the presence of a test compounds and incubated for 6 days. […] Each assay plate contained the following controls: cell control wells (cells only), virus control wells (cells plus virus), compound toxicity control wells (cells plus compound only), compound calorimetric control wells (compound only), as well as the experimental wells (compound plus cells plus virus). Cytoprotection and compound cytotoxicity were assessed by MTS (CellTiter® 96 Reagent, Promega, Madison Wis.) dye reduction, and the IC50 (concentration inhibiting virus replication by 50%), TC50 (concentration resulting in 50% cell death) and a calculated TI (therapeutic index TC50/IC50) were obtained. Each assay included the HIV reverse transcriptase inhibitor AZT as a positive control.

HIV-1IIIB = assay: HIV cytoprotection assay, HIV-1IIIB in CEM-SS cells (MTS); format: cell-based; details: for IC50: read-out: IC50 (concentration inhibiting virus replication by 50%)
Experimental: as §1, §2

HIV-2ROD = assay: HIV cytoprotection assay, HIV-2ROD in CEM-SS cells (MTS); format: cell-based; details: for IC50: read-out: IC50 (concentration inhibiting virus replication by 50%)
Experimental: as §1, §2

[3] = Human immunodeficiency virus 1, 144 h, HIV-1IIIB, CEM-SS cells, 6 days

SMILES	IC50 (GST tagged hPOSH)	IC50 [1]	CC50 at 6 days ([2]; Table 1 (HIV-1IIIB experiment))	CC50 at 6 days ([2]; Table 2 (HIV-2ROD experiment))	Antiviral Index (TI), TC50/IC50 (HIV-1IIIB; HIV-1IIIB, CEM-SS cells)	IC50 (HIV-1IIIB; Human immunodeficiency virus 1, CEM-SS, 144 h)	Antiviral Index (TI), TC50/IC50 (HIV-2ROD; HIV-2ROD, CEM-SS cells)	IC50 (HIV-2ROD; Human immunodeficiency virus 2, CEM-SS, 144 h)	IC50 (HIV-1IIIB; [3])	IC50 (HIV-2ROD; Human immunodeficiency virus 2, 144 h, HIV-2ROD, CEM-SS cells, 6 days)	Effectiveness as anti-HIV-1IIIB agent compared to Compounds 1 and 2 (HIV-1IIIB; HIV-1IIIB, CEM-SS cells)
Cc1cc(C)nc(NS(=O)(=O)c2ccc(NC(=O)/C(=C\c3cccs3)NC(=O)c3cccs3)cc2)n1 [Compound 1]	2 µM	48 µM	> 100 µM	> 300 µM	>2.07	48 µM	>5.68	52.8 µM			
O=C(Nc1ccc(S(=O)(=O)Nc2ncccn2)cc1)/C(=C\c1cccs1)NC(=O)c1cccs1 [Compound 2]			114 µM	> 300 µM	28.5		>10.2		3.99 µM	29.5 µM	
Cc1ccnc(NS(=O)(=O)c2ccc3c(c2)CCN3C(=O)/C(=C\c2cccs2)NC(=O)c2cccs2)n1 [Compound 5]			> 300 µM		>105				2.85 µM		far more effective
